Experimental data as given in US20210393677A1, “COMPOUNDS FOR MODULATION AND AS FUNCTIONAL REPLACEMENT OF ALPHAKETOGLUTARIC ACID (2OG)-DEPENDENT OXYGENASES” (priority 2018, published 2021).

Assays:
TET enzyme = assay: cell-free TET assay (co-substrate function); type: biochemical; conditions: FIG. 16B
[1] = tested on: TET enzymes in IDH1R132H/+ cells; assay: activation of TET enzymes in IDH1R132H/+ cells (5-hmdC levels); type: cell-based, human; conditions: IDH1R132H/+ cells (FIG. 11)
Procedure: Likewise, promotion of the secondary apoptosis occurs, which indicates the recovery of the cell function on a molecular level (cf. FIG. 11). The native 2-OG again enters into the normal cell metabolism and thus again inhibits the malignant derailment of the cell (secondary way of formation of 2-OG from glutamic acid is omitted).
Samples of genomic DNA (20 μg) were hydrolyzed with micrococcal nuclease from Staphylococcus aureus, bovine spleen phosphodiesterase, and bovine intestinal alkaline phosphatase (all from Sigma-Aldrich, Taufkirchen, Germany) to 2′-deoxynucleosides, as described, with modifications of the application. […] Then, DNA hydrolysates were centrifuged (5 min, 16,000×g), and 10 μL of the supernatants were used for the quantification of dC and 5-mdC stable marked references.
Compounds [15N2,13Cl]dC and 5-mdC-d3 (both from Toronto Research Chemicals, Toronto, Canada). […] Chromatographic conditions and settings of the ESI source were as described for the quantification of dC and 5-mdC [62]. […] The quantification of 5-hmdC with respect to the stable isotope-marked standard that were both eluted at 4.9 min from the LC column (the retention times of dC and 5-mdC were 4.7 or 6.0 min, respectively), was performed with the aid of the Multiple Reaction Monitoring (MRM) approach. […] For clear identification, further mass transitions were recorded. […]

HCT116 IDH1+/+ cells = assay: 2-HG content by LC-MS/MS in HCT116 IDH1+/+ cells; type: cell-based, human; conditions: ML309 10 μM, untreated 0.15
Procedure: Es is known that IDH1 mutations are connected with a modified IDH1 enzyme function that induces the excess production of neomorphous metabolite 2-hydroxyglutarate. In order to validate the increased frequency of 2-HG in HCT116 IDH1R132H/+ cells compared to HCT116 IDH1+/+ cells, the 2-HG content was analyzed by means of LC-MS/MS analysis (illustration 1). Intracellular 2-HG in IDH1R132H/+ cells was 56 times higher than in IDH1 wildtype cells (8.5 nmol/mg protein or 0.15 nmol/mg protein; 56 times higher; p<0.0001). Furthermore, the treatment with the IDH1 inhibitor ML309 (10 μM) led to a significant reduction of the oncometabolite 2-HG in the HCT116 IDH1R132H/+ cells to (0.3 nmol/mg protein) and to a lower degree of IDH1+/+ (0.04 nmol/mg protein) (Fig.). In contrast, DKA produced only minimum changes in the 2-HG concentrations in the mutated cells (5.9 nmol/mg protein). […] FIG. 10.
HCT116 (ATCC-Nr. CCL-247), a human colorectal carcinoma cell line, was acquired from the American Type Culture Collection (ATCC; https://www.atcc.org/). Human colon carcinoma cells HCT116 IDH1+/+ and HCT116 IDH1R132H/+ come from Horizon Discovery and were let us for test purposes. The cells were cultured in Dulbecco's Modified Eagle's Medium (DMEM) with 2 mM L-glutamine, supplemented with 10% fetal bovine serum (FBS), 45 IU/ml penicillin and 45 IU/ml streptomycin. […]

Row | SMILES | effect in the assay (TET enzyme) | activation of the inhibited TET enzymes [1] | intracellular 2-HG (HCT116 IDH1+/+ cells) [nmol/mg protein]
1 | O=C(O)C(=O)C(O)C(O)C(O)CO (stereo not drawn) [2-ketogulonic acid] | dose-dependent effect | – | –
2 | Cc1ccccc1C(C(=O)NC1CCCC1)N(C(=O)Cn1cnc2ccccc21)c1cccc(F)c1 (stereo not drawn) [ML309, reference compound] | – | does not activate | 0.04
